Experimental findings from ChEMBL document CHEMBL3507680, “University of Dundee, Gates Library screen for HepG2 cell viability” are described below.

The nature of this data set: Human HepG2 cell viability assay in 384 well format. The format is toxicity, cell-based. Details: dose 125 nL, time 70.5 hour; concentration not given beside the values. To be noted: HepG2 cells, read-out: Inhibition.
`Cn1cc(CN2CCCn3cnc(COCC4CC4)c3C2)cn1`: the cytotoxicity at 70.5 h was -12.6%.

As for `Cc1cnc(N2C[C@H]3C[C@H](C(=O)N(C)C)[C@@H](C2)O3)nc1`, the cytotoxicity at 70.5 h is -13.5%.

Turning to `CCOCC1CN(S(C)(=O)=O)Cc2cnn(C)c21` (centres undefined), the cytotoxicity at 70.5 h is -11.1%.

On to `Cc1ccoc1C(=O)N1CCO[C@H]2[C@H](OCC3CCOCC3)CC[C@@H]21`, for which the cytotoxicity at 70.5 h was -15%.

Take `Fc1cnc(N2CCO[C@H]3CN(CC4CCC4)C[C@H]32)nc1`: the cytotoxicity at 70.5 h is -0.999%.

On to `CC(=O)N1CCn2c(COCc3csc(C)n3)cnc2C1C` (centres undefined), for which the cytotoxicity at 70.5 h is -20.1%.

Consider `Cc1noc(C)c1CN1CCOC2(CCCN(c3nccs3)C2)C1` (centres undefined), for which the cytotoxicity at 70.5 h came out at 29.8%.

Consider `Cc1nc(N)cc(C2CCN2CCC(N)=O)n1` (centres undefined), for which the cytotoxicity at 70.5 h was -3.73%.

For `CCCn1nccc1-c1nccnc1CC1CCN(C(C)=O)CC1`, the cytotoxicity at 70.5 h is -2.55%.

`CC(=O)N1CCC(Cc2nccnc2-c2ccnn2C)CC1`: the cytotoxicity at 70.5 h is -2.74%.

Regarding `CC(C)=CCCC1(C)C=Cc2c(cc(C)n(CCC(=O)O)c2=O)O1` (centres undefined), the cytotoxicity at 70.5 h stood at 4.03%.

Regarding `COCC(=O)N1CCCCC1c1nc(C)c2c(n1)N(C1CC1)C(=O)CC2` (centres undefined), the cytotoxicity at 70.5 h was -3.68%.

For `O=C(CO)N1CCC(CCc2ccnc(Nc3cnccn3)c2)CC1`, the cytotoxicity at 70.5 h is -2.09%.

In the case of `CN1CCC(Cc2cc(N(C)C)ncn2)C1` (centres undefined), the cytotoxicity at 70.5 h was determined as 5.25%.

On to `CN1CCC(CCc2ccnc(Nc3cnccn3)c2)CC1`, for which the cytotoxicity at 70.5 h is -4.49%.

With `Cn1cc(C(=O)N2CCC(c3cc(CCO)n(C)n3)C2)cn1` (centres undefined), the cytotoxicity at 70.5 h is -4.36%.

As for `O=C(O)[C@@H]1OCC(=O)N(Cc2cccc(Cl)c2)[C@@H]1c1ccccc1`, the cytotoxicity at 70.5 h is 5.58%.

In the case of `Cc1nccc(C2CN(S(=O)(=O)N(C)C)C2)n1`, the cytotoxicity at 70.5 h was -1.63%.

In the case of `CC(=O)NC1Cc2ccc(S(=O)(=O)NCCNc3ccccn3)cc2C1` (centres undefined), the cytotoxicity at 70.5 h is -4.42%.

Consider `CC(=O)Nc1nc(SCc2ccc3c(c2)OCO3)ns1`, for which the cytotoxicity at 70.5 h is -6.56%.

In the case of `Cc1ccnn1CCC(=O)N1CCCC[C@]2(C)NC(=O)CCC[C@H]12`, the cytotoxicity at 70.5 h is -7.45%.

Consider `CC(C)(NC(=O)Cc1ccccc1F)C(=O)O`, for which the cytotoxicity at 70.5 h was -4.89%.

Regarding `CNc1nccc(C2CCCCN2Cc2cnn3cccnc23)n1` (centres undefined), the cytotoxicity at 70.5 h was -9.3%.

Take `O=C(O)c1ccccc1-c1ccc(CN2CCC(CO)C2)cn1` (centres undefined): the cytotoxicity at 70.5 h was determined as 15.8%.

For the molecule `CN(C)S(=O)(=O)N1CCC(c2c(C(N)=O)sc3ccccc23)C1` (centres undefined), the cytotoxicity at 70.5 h was -3.67%.

Turning to `Cc1nc(C2CCN2c2ncccn2)cc(N(C)C)n1` (centres undefined), the cytotoxicity at 70.5 h is -8.86%.

Take `O=C(CC1CCN(c2cccnn2)CC1)NCCO`: the cytotoxicity at 70.5 h was -6.47%.

`O=C(O)COc1ccc(CN2CCCC(Cc3cccnc3)C2)cc1` (centres undefined): the cytotoxicity at 70.5 h was -9.55%.

Turning to `CC(C)C[C@H](N)COc1cccc(F)c1Oc1ccccc1`, the cytotoxicity at 70.5 h stood at 19.1%.

On to `Cc1cnc(CCNC(=O)C2CCN(S(=O)(=O)c3ccc(F)cc3)C2)s1` (centres undefined), for which the cytotoxicity at 70.5 h worked out at 17.8%.

Take `CC(=O)N1CCC(CCc2ccnc(NC(=O)c3ccccn3)c2)CC1`: the cytotoxicity at 70.5 h is 12%.

With `O=C(O)c1ccccc1-c1cnc(CNC(=O)C2CCOCC2)nc1`, the cytotoxicity at 70.5 h was determined as 14%.

Regarding `Cc1noc(C)c1CC(=O)N1CCCC(Cc2ccccn2)C1` (centres undefined), the cytotoxicity at 70.5 h was -7.69%.

Regarding `O=C(O)c1ccc(=O)n(CC(c2ccc(Cl)cc2)N2CCCCCC2)c1` (centres undefined), the cytotoxicity at 70.5 h is -8.13%.

In the case of `COCC(=O)N1C[C@@H](c2cccc(F)c2)[C@H]2[C@H]1CCCCCN2C(C)=O`, the cytotoxicity at 70.5 h stood at 7.2%.

`Cc1ccnc(C2CN(c3ncccn3)C2)n1`: the cytotoxicity at 70.5 h is -12.1%.

For `CC(=O)N1CCCCC[C@@H]2[C@@H]1[C@H](c1cccc(F)c1)CN2CCC(N)=O`, the cytotoxicity at 70.5 h is -9.36%.

In the case of `CCC(=O)N1CCCC(C(=O)c2cnn(-c3ccc(F)cc3)c2N)C1` (centres undefined), the cytotoxicity at 70.5 h was -0.996%.

In the case of `CC(=O)N1CCC1c1cc(N2CC(O)C2)nc(C)n1` (centres undefined), the cytotoxicity at 70.5 h was -11.3%.

Turning to `CNC(=O)C1(c2cnccn2)CCCN1C(=O)Cc1ccsc1` (centres undefined), the cytotoxicity at 70.5 h is -6.75%.

Take `CC(=O)N1CCC(C(=O)c2cnn(-c3ccccc3)c2N)C1` (centres undefined): the cytotoxicity at 70.5 h is -7.91%.

As for `NCCCC(=O)NCC1(O)CCN(c2ccnc3cccnc23)C1` (centres undefined), the cytotoxicity at 70.5 h is -7.06%.

With `O=C1CN(C(=O)C2CN(c3cccc(Cl)c3)CCO2)CCN1` (centres undefined), the cytotoxicity at 70.5 h was -7.93%.

Turning to `O=C1CN(C(=O)C2CN(c3ccccc3)CCO2)CCN1` (centres undefined), the cytotoxicity at 70.5 h is -5.72%.

`CO[C@H]1C[C@@H]2CN(C(=O)c3cc4ccc(F)cc4[nH]3)C[C@@H]2C1`: the cytotoxicity at 70.5 h is -6.74%.

On to `Fc1cccc(Cc2cncc(C3CCCN3C3CCOCC3)n2)c1` (centres undefined), for which the cytotoxicity at 70.5 h was -5.65%.

`CCn1c(C)nc2cc(NC(=O)CC3CCCCO3)ccc21` (centres undefined): the cytotoxicity at 70.5 h was -7.28%.

Take `Cc1nc(C2CCN(S(C)(=O)=O)CC2)nc2c1CCC(=O)N2CC(C)C`: the cytotoxicity at 70.5 h is -1.36%.

With `CC(=O)N1CCC1c1cc(N2CCNC(=O)C2)nc(C)n1` (centres undefined), the cytotoxicity at 70.5 h is -5.23%.

For the molecule `O=C1CO[C@H]2CCN(C(=O)c3ccc4c(c3)CCCC4)CC[C@@H]2N1`, the cytotoxicity at 70.5 h is -8.53%.

In the case of `CCC(=O)N1CCC(c2nc(C)ncc2-c2ccncc2)CC1`, the cytotoxicity at 70.5 h was -7.07%.

For the molecule `CCS(=O)(=O)N1CCC(c2nc(C)c(C)c(N3CCCC3)n2)CC1`, the cytotoxicity at 70.5 h came to 2.09%.

Turning to `CCN(Cc1ccccc1O)CC1(C)Cc2c(N)nc(N)nc2O1` (centres undefined), the cytotoxicity at 70.5 h is -3.26%.

On to `CCN(Cc1ccncc1)CC1(C)Cc2c(N)nc(N)nc2O1` (centres undefined), for which the cytotoxicity at 70.5 h is -2.81%.

As for `O=C(O)c1ccc(=O)n(CC(c2ccc(Cl)cc2)N2CCOCC2)c1` (centres undefined), the cytotoxicity at 70.5 h was -6.42%.

For `CCN(Cc1cscn1)CC1(C)Cc2c(N)nc(N)nc2O1` (centres undefined), the cytotoxicity at 70.5 h amounted to 6.12%.

On to `CCN(CCCc1ccccc1)CC1(C)Cc2c(N)nc(N)nc2O1` (centres undefined), for which the cytotoxicity at 70.5 h is 12.9%.

In the case of `CNC(=O)c1cc(C)nc(C2(C)CCCN2c2cc(C)ncn2)n1` (centres undefined), the cytotoxicity at 70.5 h was -6.05%.

For the molecule `CC(C)CC(=O)N1CCCC1c1cc(CO)[nH]n1` (centres undefined), the cytotoxicity at 70.5 h was -4.42%.

As for `OCC(CO)N1CCCC(Cc2cnc(Nc3ccccn3)cn2)C1` (centres undefined), the cytotoxicity at 70.5 h was -3.34%.

Consider `CCC(CC)C(=O)N1CCCc2c(cnn2C)C1`, for which the cytotoxicity at 70.5 h is -1.89%.

For the molecule `O=C1NC2(CCN(CC(=O)N3CCOCC3)CC2)Nc2ccccc21`, the cytotoxicity at 70.5 h was -2.3%.

For the molecule `CC(C)c1cc(C(F)(F)F)n2nc(C3CCN(S(C)(=O)=O)C3)cc2n1` (centres undefined), the cytotoxicity at 70.5 h was -1.05%.

For `O=C1NC2(CCCN(C(=O)CCn3cccn3)C2)Oc2ccccc21` (centres undefined), the cytotoxicity at 70.5 h was found to be 1.47%.

`COc1ccccc1N1CCC(NCc2c(C)noc2C)C1` (centres undefined): the cytotoxicity at 70.5 h was determined as 30%.

For `CCc1ccccc1OCC(=O)Nc1ccnc(OCCN(C)C)c1`, the cytotoxicity at 70.5 h was 3.03%.

On to `NC(=O)CN(Cc1cccc(Oc2ccccc2)c1)C(=O)C1CC1`, for which the cytotoxicity at 70.5 h was -4.97%.

On to `O=S(=O)(Nc1ccc(N2CCOCC2)cn1)c1cccc(F)c1`, for which the cytotoxicity at 70.5 h was -3.99%.

`Cc1ccc(S(=O)(=O)Nc2ccc(N3CCOCC3)cn2)cc1`: the cytotoxicity at 70.5 h is -3.69%.

`COc1ccc(C(CN2CCN(C)CC2)Nc2ncccn2)cc1` (centres undefined): the cytotoxicity at 70.5 h is 0.96%.

Regarding `COc1cc(C)ccc1OCC(=O)Nc1ccnc(OCCN(C)C)c1`, the cytotoxicity at 70.5 h was 39.3%.

For `COc1ccnc(N(C)Cc2c(C)noc2C)n1`, the cytotoxicity at 70.5 h is -3.59%.

As for `CC(=O)N1CCCN(C(=O)NC(C)c2ccc(C)o2)CC1` (centres undefined), the cytotoxicity at 70.5 h was 1.15%.

On to `CC(C(=O)NCc1cccs1)N1CCN(Cc2nccn2C)CC1` (centres undefined), for which the cytotoxicity at 70.5 h was found to be 13.2%.

Consider `COc1ccc(SC(C)C(=O)N2CCC(C(=O)N3CCCC3)CC2)cc1` (centres undefined), for which the cytotoxicity at 70.5 h was -5.49%.

For the molecule `COc1ccc(SC(C)C(=O)N2CCC(O)CC2)cc1` (centres undefined), the cytotoxicity at 70.5 h is -4.3%.

Take `N#Cc1ccccc1OCCN1CCC(C(=O)N2CCOCC2)CC1`: the cytotoxicity at 70.5 h is -9.69%.

Consider `Cc1cc(C2CCCN2C(=O)c2ccc(OCC(N)=O)cc2)no1` (centres undefined), for which the cytotoxicity at 70.5 h was -11.5%.

As to `O=C(CCn1cncn1)NC1CCS(=O)(=O)C1` (centres undefined), the cytotoxicity at 70.5 h is -11%.

As to `Cc1ccc(OCCCNC(=O)C(C)Sc2nncn2C)cc1` (centres undefined), the cytotoxicity at 70.5 h was -12.1%.

With `CC(C)c1nc2n(n1)CC(Nc1ncnc3ccccc13)CC2` (centres undefined), the cytotoxicity at 70.5 h was -13%.

`CN(C)S(=O)(=O)NC(=O)CC(c1ccccc1)C(F)(F)F` (centres undefined): the cytotoxicity at 70.5 h is -2.07%.

As to `COCC(C)(C)NC(=O)CC(c1ccccc1)C(F)(F)F` (centres undefined), the cytotoxicity at 70.5 h was -15.6%.

Consider `Cc1nc2n(n1)CC(Nc1ncnc3c1CCC3)CC2` (centres undefined), for which the cytotoxicity at 70.5 h is -10.2%.

Take `O=C(C[S+]([O-])Cc1csc(C2CCCC2)n1)Nc1ccccc1` (centres undefined): the cytotoxicity at 70.5 h is -17.5%.

`NC(=O)C1CN(c2ccc(F)cc2)CCN1` (centres undefined): the cytotoxicity at 70.5 h is -2.98%.

Regarding `Cc1nc(C2CCNC2)nc2c1CCC(=O)N2CC(C)C` (centres undefined), the cytotoxicity at 70.5 h is -3.62%.

In the case of `CCOc1cc2c(cc1CNC(Cc1cccs1)c1nccs1)OCO2` (centres undefined), the cytotoxicity at 70.5 h was 1.33%.

Consider `CC(C)(CN)NS(=O)(=O)c1c(F)cccc1F`, for which the cytotoxicity at 70.5 h was 2.67%.

`Cc1c(F)cccc1S(=O)(=O)NCCN`: the cytotoxicity at 70.5 h is -0.256%.

For `COc1ccc(CN)c(OC(F)F)c1`, the cytotoxicity at 70.5 h was -10.1%.

With `c1cncc(CN2CCC(c3ccc4c(c3)OCO4)CC2)c1`, the cytotoxicity at 70.5 h is 19.4%.

For the molecule `Cc1ccc(CN2C[C@@H]3COC[C@@H](NS(C)(=O)=O)[C@@H]3C2)o1`, the cytotoxicity at 70.5 h was -18.3%.

As for `CC1c2ncc(CNC(=O)C3CC3)n2CCN1Cc1cnn(C)c1` (centres undefined), the cytotoxicity at 70.5 h is -12%.

For the molecule `c1ccc(OC[C@]23COC[C@H]2CN(c2ncccn2)C3)nc1`, the cytotoxicity at 70.5 h is -9.18%.

For the molecule `c1cncc(OCc2nnn3c2CN(Cc2ccsc2)CCC3)c1`, the cytotoxicity at 70.5 h was -11.8%.

For `O=C(NCc1ccccn1)[C@]12COC[C@H]1CN(C1CCC1)C2`, the cytotoxicity at 70.5 h was -10.3%.

As for `O[C@H]1CCN(Cc2ccoc2)[C@H]1Cc1cccnc1`, the cytotoxicity at 70.5 h came to 30.5%.

Take `CN1CCN(C[C@@H]2OC[C@H]3CN(Cc4cccc(F)c4)CC[C@H]32)CC1`: the cytotoxicity at 70.5 h worked out at 2.68%.
